Results: PubChem BioAssay (NCI)
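Each compound was tested at five concentrations against cells in 96-well plates for 48 hours. GI50 = concentration required for 50% inhibition of growth. At the TGI there is no net growth.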

What was measured:
Assay in all cases: NCI anticancer screen, dose series, 48 h
[1] = system: SNB-75 CNS
[2] = system: MDA-MB-231 breast
[3] = system: HT29 colon
[4] = system: SW-620 colon
[5] = system: RPMI-8226 leukemia
[6] = system: EKVX NSCLC
[7] = system: UACC-257 melanoma
[8] = system: HOP-62 NSCLC
[9] = system: HCC-2998 colon
[10] = system: SR leukemia
[11] = system: MOLT-4 leukemia
[12] = system: OVCAR-8 ovarian
[13] = system: MDA-MB-468 breast
[14] = system: SK-OV-3 ovarian
[15] = system: SF-268 CNS
[16] = system: HS 578T breast
[17] = system: BT-549 breast
[18] = system: NCI-H522 lung
[19] = system: DU-145 prostate
[20] = system: COLO 205 colon
[21] = system: SK-MEL-2 melanoma
[22] = system: MALME-3M melanoma
[23] = system: SF-295 CNS
[24] = system: A498 renal
[25] = system: HCT-15 colon
[26] = system: CCRF-CEM leukemia
[27] = system: PC-3 prostate
[28] = system: LOX IMVI melanoma
[29] = system: ACHN renal

Work on `COc1ccsc1/C=N/NC(=O)c1[nH]c2ccc(Br)cc2c1-c1ccccc1` yielded a GI50 [1] of 311 nM, a TGI [1] of 2260 nM and a GI50 [2] of 437 nM. It also gave a TGI [2] of 13000 nM, a GI50 [3] of 271 nM and a TGI [3] of 698 nM. It also gave a GI50 [4] of 413 nM, a TGI [4] of over 100000 nM and a GI50 [5] of 388 nM. For the same compound, the TGI [5] was 3870 nM, the GI50 [6] was 502 nM and the TGI [6] was over 100000 nM. The GI50 [7] was 2910 nM, the TGI [7] was over 56900 nM and the GI50 [8] was 468 nM. The TGI [8] was over 45100 nM, the GI50 [9] was 622 nM and the TGI [9] was 14500 nM. The GI50 [10] was 369 nM, the TGI [10] was over 100000 nM and the GI50 [11] was 403 nM. For the same compound, the TGI [11] was 11500 nM, the GI50 [12] was 395 nM and the GI50 [13] was 273 nM. For the same compound, the TGI [13] was 870 nM, the GI50 [14] was 500 nM and the TGI [14] was 34700 nM. The GI50 [15] was 997 nM, the TGI [15] was 39600 nM and the GI50 [16] was 338 nM. It also gave a TGI [16] of 65200 nM, a GI50 [17] of 739 nM and a TGI [17] of 5260 nM. It also gave a GI50 [18] of 187 nM, a TGI [18] of 781 nM and a GI50 [19] of 454 nM. The TGI [19] was over 100000 nM, the GI50 [20] was 373 nM and the TGI [20] was 1320 nM. It also gave a GI50 [21] of 308 nM, a TGI [21] of 10700 nM and a GI50 [22] of 538 nM. For the same compound, the TGI [22] was 25700 nM, the GI50 [23] was 317 nM and the TGI [23] was 13400 nM. It also gave a GI50 [24] of 15300 nM, a TGI [24] of 53300 nM and a GI50 [25] of 372 nM. It also gave a TGI [25] of 16400 nM, a GI50 [26] of 311 nM and a TGI [26] of 5010 nM. For the same compound, the GI50 [27] was 410 nM, the TGI [27] was 39700 nM and the GI50 [28] was 519 nM. It also gave a TGI [28] of 13700 nM and a GI50 [29] of 710 nM.
